# Assays:
# Staphylococcus aureus [1] = assay: microbe, parasite or virus in culture; type: functional; settings: ATCC 33591
# Description: Antimicrobial activity against hospital acquired methicillin-resistant Staphylococcus aureus ATCC 33591 assessed as inhibition of microbial growth
# Staphylococcus aureus [2] = assay: Antimicrobial activity against community acquired methicillin-resistant Staphylococcus aureus USA300 assessed as inhibition of microbial growth; type: functional
# Pseudomonas aeruginosa = assay: Antimicrobial activity against Pseudomonas aeruginosa PAO1 assessed as inhibition of microbial growth; type: functional
# Enterococcus faecalis = assay: Antimicrobial activity against Enterococcus faecalis OG1RF assessed as inhibition of microbial growth; type: functional
# Escherichia coli = assay: Antimicrobial activity against Escherichia coli MC4100 assessed as inhibition of microbial growth; type: functional
# Staphylococcus aureus [3] = assay: Antimicrobial activity against methicillin-susceptible Staphylococcus aureus SH1000 assessed as inhibition of microbial growth; type: functional
# Erythrocyte = assay: Hemolytic activity against human RBC assessed as concentration required to cause >20% hemolysis; type: ADME, cell-based
SMILES,MIC (Staphylococcus aureus [1]) [µM],MIC (Staphylococcus aureus [2]) [µM],MIC (Pseudomonas aeruginosa) [µM],MIC (Enterococcus faecalis) [µM],MIC (Escherichia coli) [µM],MIC (Staphylococcus aureus [3]) [µM],HC20 (Erythrocyte) [µM]
C[N+]1(CCCCCCCCCCCC[N+]2(C)CCCC2)CCCC1.[Br-].[Br-],> 250,> 250,> 250,> 250,> 250,> 250,125
C(CCCCCC[S+]1CCCC1)CCCCC[S+]1CCCC1.[I-].[I-],> 250,250,> 250,> 250,> 250,250,250
CCCCCCCCCCCCCCCC[N+]1(C)CCCC1.[Br-],8,2,> 250,> 250,125,4,16
CCCCCCCC[N+]1(C)CCCC1.[Br-],> 250,> 250,> 250,> 250,> 250,> 250,125
C[N+]1(CCCCCCCC[N+]2(C)CCCC2)CCCC1.[Br-].[Br-],> 250,> 250,> 250,> 250,> 250,> 250,125
C[N+]1(CCCCCCCCCC[N+]2(C)CCCC2)CCCC1.[Br-].[Br-],> 250,> 250,> 250,> 250,> 250,> 250,125
CCCCCCCCCCCCCCCCCC[S+]1CCCC1.[I-],8,4,250,> 250,63,1,16
CCCCCCCCCC[S+]1CCCC1.[I-],> 250,250,> 250,> 250,> 250,250,125
CCCCCCCCCC[N+]1(C)CCCC1.[Br-],> 250,> 250,> 250,> 250,> 250,> 250,250
CCCCCCCC[S+]1CCCC1.[I-],> 250,> 250,> 250,> 250,> 250,> 250,125
CCCCCCCCCCC[S+]1CCCC1.[I-],250,250,> 250,> 250,> 250,125,125
C(CCCC[S+]1CCCC1)CCC[S+]1CCCC1.[I-].[I-],> 250,> 250,> 250,> 250,> 250,> 250,125
CCCCCCCCCCCC[S+]1CCCC1.[I-],125,16,> 250,> 250,> 250,16,125
CCCCCCCCCCCCCC[S+]1CCCC1.[I-],32,4,> 250,> 250,250,4,16
CCCCCCCCCCCCC[S+]1CCCC1.[I-],125,32,> 250,> 250,> 250,8,63
CCCCCCCCCCCCCCCC[S+]1CCCC1.[I-],8,4,> 250,> 250,125,2,16
CCCCCCCCCCCCCCCCCC[N+]1(C)CCCC1.[Br-],8,4,250,> 250,63,2,16
CCCCCCCCCCCCCCCC[n+]1ccccc1.[Cl-],,,,,,,8
CCCCCCCCCCCCC[N+]1(C)CCCC1.[Br-],63,16,> 250,> 250,> 250,8,63
CCCCCCCCCCCCCC[N+]1(C)CCCC1.[Br-],16,8,> 250,> 250,250,4,32
CCCCCCCCCCC[N+]1(C)CCCC1.[Br-],> 250,125,> 250,> 250,> 250,125,125
C(CCCCC[S+]1CCCC1)CCCC[S+]1CCCC1.[I-].[I-],> 250,250,> 250,> 250,> 250,250,125
CCCCCCCCCCCC[N+]1(C)CCCC1.[Br-],125,32,> 250,> 250,> 250,32,125
